Test results published in publication PMC11448502, “Cryo-EM structures of the human P2X1 receptor reveal subtype-specific architecture and antagonism by supramolecular ligand-binding” (Nature Communications, 2024).
Residue numbers refer to the chain shown, from its start. Where “and” joins values, the source holds several entries; their conditions need not be identical. Equal values may be shown once. One block for each compound: values may come before it.

What was measured:
platelets = details: ex vivo; cited from earlier work
hP2X1 K136A = target: T1, hP2X1 K136A (Homo sapiens, UniProt P51575, K136A); test: NF449 inhibition dose response (IC50), TEVC in oocytes; type: cell-based; details: for Normalized Current: hP2X1 K136A
T1 construct: hP2X1 mRNA that was made from linearized full-length wild-type or mutant pcDNA 3.1x; expressed in transfected cells; host or cells: Xenopus laevis oocytes (mRNA injection)
T1 sequence (P51575 1-399 K136A): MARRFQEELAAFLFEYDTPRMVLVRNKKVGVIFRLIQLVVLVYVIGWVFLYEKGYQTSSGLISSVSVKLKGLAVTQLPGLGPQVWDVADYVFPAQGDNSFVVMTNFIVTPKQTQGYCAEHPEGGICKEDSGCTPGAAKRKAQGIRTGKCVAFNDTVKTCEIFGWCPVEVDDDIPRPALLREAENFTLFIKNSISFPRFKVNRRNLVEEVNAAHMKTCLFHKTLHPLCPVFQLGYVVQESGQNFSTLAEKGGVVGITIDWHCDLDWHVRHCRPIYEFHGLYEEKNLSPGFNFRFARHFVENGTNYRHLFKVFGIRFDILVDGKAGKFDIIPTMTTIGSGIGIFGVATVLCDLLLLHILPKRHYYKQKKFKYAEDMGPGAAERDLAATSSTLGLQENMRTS
Protocol: (§1) Oocytes were purchased defolliculated from Ecocyte Bioscience in Barth’s Solution (88 mM NaCl, 1 mM KCl, 0.82 mM MgSO4, 0.33 mM Ca(NO3)2, 0.41 mM CaCl2, 2.4 mM NaHCO3, 5 mM Tris-HCl) supplemented with penicillin (100 U/mL) and streptomycin (100 µg/mL). Xenopus laevis oocytes were then injected with 50 nL of 100 ng/μL hP2X1 mRNA that was made from linearized full-length wild-type or mutant pcDNA 3.1x according to the protocol provided in the mMessage mMachine kit (Invitrogen). Injected oocytes were allowed to express for ~20 hours at 18 °C before recording was performed.
(§2) Data acquisition was performed using the Oocyte Clamp OC-725C amplifier and pClamp 8.2 software. Buffers were applied using a gravity fed RSC-200 Rapid Solution Changer that flows at ~5 mL/min. All experiments use Sutter filamented glass 10 cm in length with an inner diameter of 0.69 mm and an outer diameter of 1.2 mm to impale oocytes and clamp the holding voltage at −60 mV. Experiments were recorded in buffer containing 10 mM HEPES (pH 7.4), 140 mM NaCl, 5 mM KCl, 2 mM CaCl2, 2 mM MgCl2, and 10 mM glucose.
(§3) To test a dilution series of an antagonist at discrete concentrations, 10 µM ATP (2 mM ATP for K309A only) was first applied to evoke an initial maximum current. The oocyte was then washed with buffer for one minute, followed by one minute application of an antagonist test-concentration, and concluded by co-application of the same test concentration with 10 µM ATP (2 mM ATP for K309A). The antagonized signal was then normalized against the initial ATP excitatory signal. Each test concentration was performed in triplicate across different oocytes. The data was then fit to a nonlinear regression named “[inhibitor] vs. response – Variable slope (four parameters)” in Prism 9 to produce a sigmoidal curve and afford an IC50 value. Each singular condition was used to generate an average which is reported plus or minus its standard deviation between three discrete trials.

hP2X1 R292A = target: T2, hP2X1 R292A (Homo sapiens, UniProt P51575, R292A); test: as above; type: cell-based; details: for Normalized Current: hP2X1 R292A
T2 construct: hP2X1 mRNA that was made from linearized full-length wild-type or mutant pcDNA 3.1x; expressed in transfected cells; host or cells: Xenopus laevis oocytes (mRNA injection)
T2 sequence (P51575 1-399 R292A): T1 sequence (P51575 1-399 K136A) with A136K, R292A
Protocol: as §1, §2, §3

hP2X3 WT = target: T3, hP2X3 WT (Homo sapiens, UniProt P56373); test: ATP dose response (EC50), TEVC in oocytes; type: cell-based
T3 construct: expressed in transfected cells
T3 sequence (P56373 1-397): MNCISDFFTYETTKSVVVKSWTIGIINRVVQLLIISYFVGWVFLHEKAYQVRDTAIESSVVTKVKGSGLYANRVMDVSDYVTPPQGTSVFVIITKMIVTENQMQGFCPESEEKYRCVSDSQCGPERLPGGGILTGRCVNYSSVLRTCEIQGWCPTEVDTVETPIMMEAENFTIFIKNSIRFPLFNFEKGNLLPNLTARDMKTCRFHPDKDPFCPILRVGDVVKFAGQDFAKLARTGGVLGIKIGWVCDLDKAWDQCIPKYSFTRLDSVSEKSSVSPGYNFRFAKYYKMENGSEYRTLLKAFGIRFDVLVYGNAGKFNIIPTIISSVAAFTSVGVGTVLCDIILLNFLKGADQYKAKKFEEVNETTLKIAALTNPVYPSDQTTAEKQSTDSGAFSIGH

P2X3 = tested on: P2X3; set-up: method as in doi: 10.1111/bph.15299; details: reviewer comment, ref doi: 10.1111/bph.15299, read-out: EC50 of ATP; cited from earlier work
P2X1 = tested on: P2X1; set-up: method as in doi: 10.1111/bph.15299; details: reviewer comment, ref doi: 10.1111/bph.15299, read-out: EC50 of ATP; cited from earlier work

Compound: O=C(Nc1cc(C(=O)Nc2ccc(S(=O)(=O)O)cc2S(=O)(=O)O)cc(C(=O)Nc2ccc(S(=O)(=O)O)cc2S(=O)(=O)O)c1)Nc1cc(C(=O)Nc2ccc(S(=O)(=O)O)cc2S(=O)(=O)O)cc(C(=O)Nc2ccc(S(=O)(=O)O)cc2S(=O)(=O)O)c1 [NF449, 4,4’,4”,4’’’-(carbonylbis(imino-5,1,3-benzenetriylbis(carbonylimino)))tetrakis-benzene-1,3-disulfonic acid]
effect on platelet activation (platelets): inhibitory effect | reduction in inhibitory potency (IC50) of NF449 (hP2X1 K136A; hP2X1 K136A vs wild-type): 39 fold | Normalized Current (hP2X1 K136A; [NF449] 1.600E-09 M): 1 | Normalized Current (hP2X1 K136A; [NF449] 2.000E-07 M): 0.205 and 0.1861 and 0.1104 | Normalized Current (hP2X1 K136A; [NF449] 3.200E-10 M): 0.9716 and 0.9527 and 0.8864 | Normalized Current (hP2X1 K136A; [NF449] 4.000E-08 M): 0.5079 and 0.4606 and 0.4322 | Normalized Current (hP2X1 K136A; [NF449] 8.000E-09 M): 0.7634 and 0.7445 and 0.5647 | reduction in inhibitory potency of NF449 (hP2X1 R292A; hP2X1 R292A vs wild-type): 31 fold | Normalized Current (hP2X1 R292A; [NF449] 1.000E-06 M): 0.000000 | Normalized Current (hP2X1 R292A; [NF449] 1.600E-09 M): 1.038 and 1.012 and 0.9446 | Normalized Current (hP2X1 R292A; [NF449] 2.000E-07 M): 0.09965 and 0.08304 and 0.07993 | Normalized Current (hP2X1 R292A; [NF449] 3.200E-10 M): 1.08 and 0.9654 and 0.955 | Normalized Current (hP2X1 R292A; [NF449] 4.000E-08 M): 0.4671 and 0.3945 and 0.2595 | Normalized Current (hP2X1 R292A; [NF449] 8.000E-09 M): 0.8305 and 0.7889 and 0.7059

EC50 (hP2X3 WT; TEVC): 800 ± 100 nM | Normalized Current (hP2X3 WT; [ATP] 1.000E-04 M): 1.024 and 0.937 and 0.934 | Normalized Current (hP2X3 WT; [ATP] 1.563E-06 M): 0.9021 and 0.8096 and 0.6657 | Normalized Current (hP2X3 WT; [ATP] 2.500E-05 M): 1.229 and 0.9489 and 0.8224 | Normalized Current (hP2X3 WT; [ATP] 3.906E-07 M): 0.1693 and 0.1661 and 0.1374 | Normalized Current (hP2X3 WT; [ATP] 6.250E-06 M): 0.9276 and 0.9021 and 0.8266 | Normalized Current (hP2X3 WT; [ATP] 9.766E-08 M): 0.0748 and 0.0739 and 0.04276 | Hill slope of activation by ATP (hP2X3 WT; mean ± SD of three EC50 traces): 2.5 ± 0.6
Compound: Nc1ncnc2c1ncn2[C@@H]1O[C@H](COP(=O)(O)OP(=O)(O)OP(=O)(O)O)[C@@H](O)[C@H]1O [ATP]
EC50 (P2X3): 500 to 1000 nM | EC50 (P2X1): 500 to 1000 nM
